US20250034579A1, “METHODS AND COMPOSITIONS FOR GENETICALLY MODIFYING HUMAN GUT MICROBES” (Cornell University, priority 2021, published 2025)

Assays:
[1] = test system: Bacteroides and Erysipelotrichaceae microbes; test: Growth curve of bacteria in the presence of bile acids (OD600); assay type: cell-based; settings: 500 μM bile acid, DMSO control; 2 Bacteroides, 7 Erysipelotrichaceae
Protocol: Bacteroides (Bacteroides fragilis 3112 (Bac1) and Bacteroides vulgatus ATCC 8482 (Bac2)) and Erysipelotrichaceae (Clostridium ramosum ATCC 25554 (Ery1), Erysipelatoclostridium ramosum strain 113-1 (Ery2), Clostridium ramosum DSM 24812 (Ery3), Clostridium ramosum DSM 1402 (Ery4), HM-173 Clostridium innocuum 6_1_30 (Ery5), Clostridium innocuum DSM 22910 (Ery6) and Holdemania filiformis DSM 12042 (Ery7)) were streaked from a glycerol stock onto TSAB agar plates and incubated anaerobically for ˜ 24 h at 37° C. Three colonies were inoculated into 1 ml of Mega broth and were anaerobically cultured for overnight at 37° C. Cells were diluted 1,000-fold into Mega broth to reach late-log phase. Then 5 μL of the culture was resuspended in 145 μL broth, loaded into a 96-well plated, and incubated anaerobically at 37° C. in Multiskan Sky Microplate Spectrophotometer (Thermo Fisher Scientific). Four bile acids (CA, 7-oxoCA, DCA, and 3-oxoDCA, 500 μM each) were tested with their solvent DMSO as control. Optical densities at 600 nm (OD600) were recorded every 60 min until the cultures reached the stationary phase. Bacterial growth curves were performed in triplicate with each biological replicate deriving from a single colony.

[2] = test system: Erysipelotrichaceae microbes; assay type: cell-based; settings: in vitro consortium of 2 Bacteroides and 7 Erysipelotrichaceae; DCA at 0, 250 and 500 μM
[3] = test system: Bacteroidia (Prevotella and Bacteroides) microbes; test: Antibiotics test of Gram-negative Bacteroidia strains on agar plates; assay type: cell-based; settings: 66 Bacteroidia strains; TSAB plates with 15 μg/mL thiamphenicol (or MICs)
[4] = SPF mice; drinking water with thiamphenicol 15 μg/ml and erythromycin 10 μg/ml

Compound	resistance of Erysipelotrichaceae microbes versus Bacteroides microbes (growth curve) [1]	expansion of Erysipelotrichaceae microbes (relative fold change by qPCR) [2]	resistance against thiamphenicol [3]	accumulation of supplemented antibiotic in the feces [4]
C[C@H](CCC(=O)O)[C@H]1CC[C@H]2[C@@H]3CC[C@@H]4CC(=O)CC[C@]4(C)[C@H]3C[C@H](O)[C@]12C [3-oxo DCA]	more resistant	–	–	–
C[C@H](CCC(=O)O)[C@H]1CC[C@H]2[C@@H]3CC[C@@H]4C[C@H](O)CC[C@]4(C)[C@H]3C[C@H](O)[C@]12C [DCA, deoxycholic acid]	more resistant	drives expansion	–	–
CS(=O)(=O)c1ccc([C@@H](O)[C@@H](CO)NC(=O)C(Cl)Cl)cc1 [thiamphenicol]	–	–	not resistant	~5 pmol/mg
